The values below come from ChEMBL document CHEMBL1141838, “Application of lipase-catalyzed regioselective esterification in the preparation of digitonin derivatives” (J Nat Prod, 1999).

This data set is described as follows: Toxic hemolytic activity against RBC assessed as hemolytic index. In kind it is ADME, cell-based. The following applies: erythrocyte.
Regarding `CC(=O)OC[C@H]1O[C@@H](O[C@H]2[C@@H](O)[C@@H](CO)O[C@@H](O[C@H]3[C@H](O[C@@H]4C[C@@H]5CC[C@H]6[C@@H]7[C@H](O)[C@@H]8O[C@]9(CC[C@@H](C)CO9)[C@@H](C)[C@@H]8[C@@]7(C)CC[C@@H]6[C@@]5(C)C[C@H]4O)O[C@H](CO)[C@H](O[C@@H]4O[C@H](CO)[C@@H](O)[C@H](O[C@@H]5OC[C@@H](O)[C@H](O)[C@@H]5O)[C@H]4O)[C@@H]3O)[C@@H]2O)[C@H](O)[C@@H](O)[C@@H]1O`, the Activity is 40000. On to `C[C@@H]1CC[C@@]2(OC1)O[C@H]1[C@@H](O)[C@H]3[C@@H]4CC[C@H]5C[C@@H](O[C@@H]6O[C@H](CO)[C@H](O[C@@H]7O[C@H](CO)C(O)[C@H](O[C@@H]8OC[C@@H](O)[C@H](O)[C@H]8O)[C@H]7O[C@@H]7O[C@H](CO)[C@H](O)[C@H](O[C@@H]8O[C@H](CO)[C@@H](O)[C@H](O)[C@H]8O)[C@H]7O)[C@H](O)[C@H]6O)[C@H](O)C[C@]5(C)[C@H]4CC[C@]3(C)[C@H]1[C@@H]2C` (some centres undefined) [DIGITONIN], for which the Activity was found to be 135000. As to `CC(=O)OC[C@H]1O[C@@H](O[C@H]2[C@@H](O)[C@@H](CO)O[C@@H](O[C@H]3[C@H](O[C@@H]4C[C@@H]5CC[C@H]6[C@@H]7[C@H](O)[C@@H]8O[C@]9(CC[C@@H](C)CO9)[C@@H](C)[C@@H]8[C@@]7(C)CC[C@@H]6[C@@]5(C)C[C@H]4O)O[C@H](CO)[C@H](O[C@@H]4O[C@H](CO)[C@@H](O)[C@H](O[C@@H]5OC[C@@H](OC(C)=O)[C@H](O)[C@@H]5O)[C@H]4O)[C@@H]3O)[C@@H]2O)[C@H](O)[C@@H](O)[C@@H]1O`, the Activity stood at 43000. On to `CC(=O)O[C@@H]1CO[C@@H](O[C@@H]2[C@@H](O)[C@H](O[C@@H]3[C@H](O)[C@@H](O[C@@H]4O[C@H](CO)[C@H](O)[C@H](O[C@@H]5O[C@H](CO)[C@@H](O)[C@H](O)[C@H]5O)[C@H]4O)[C@H](O[C@@H]4C[C@@H]5CC[C@H]6[C@@H]7[C@H](O)[C@@H]8O[C@]9(CC[C@@H](C)CO9)[C@@H](C)[C@@H]8[C@@]7(C)CC[C@@H]6[C@@]5(C)C[C@H]4O)O[C@@H]3CO)O[C@H](CO)[C@H]2O)[C@@H](O)[C@H]1O`, for which the Activity worked out at 52000.
